Experimental data published in patent publication US20230218555A1, “CREATINE, ITS DERIVATIVES, COMPOSITIONS AND METHODS OF USE THEREOF” (priority 2021, published 2023).

Columns and labels:
Type in all cases: in vivo, human
[1] = test system: cervical and thoracic spine; assay: Example 24: osteoarthritis, spine
Method: The same subject above topically applied an adhesive dressing, 5 cm wide and 30 cm long, saturated with a solution of C15 4% in WP 82 to the upper spine.
Over a period of 3 months, subcutaneous injections of 0.6 ml of the above C15 solution were injected subcutaneously into each of 5 intervertebral sites of the cervical and thoracic spine.

[2] = test system: Aphthous Ulcers (Canker Sores); assay: Example 20: aphthous ulcers (canker sores), topical
From the text: Two eroded painful sites 2-3 mm in diameter on the right side of the tongue worsened over 2 days in a subject. At bedtime of the 2nd day, the subject topically applied C15 3% in water: propylene glycol 8:2.

[3] = test system: bunion on right foot; assay: Example 21: subcutaneous injection over bunion; conditions: weekly subcutaneous injections of 1.5% aqueous solution
From the text: A subject presented with bunion on right foot that has been enlarging over the past decade. […] Weekly injections will be continued for another month or two to determine whether complete resolution will be achieved.

[4] = test system: osteoarthritis of numerous joints; assay: Example 19: abdominal subcutaneous injections
Method: A physician subject with continually worsening, for 15-16 years, painful osteoarthritis of numerous joints (almost entire spine, wrists, right shoulder, knees and most recently the feet) on one day at 11:30 AM self injected subcutaneously the right abdominal area with 3 ml of a sterile aqueous solution that they had prepared containing N-acetyl ethyl creatinate 1%, arginine 0.25%, pH 7. Using 1 ml insulin syringes with short 8 mm needles 1 ml of the solution was injected into each of 3 sites. Ten minutes later their whole body was 95+% pain free and remained so for 3.5 hours when pain was sensed to be returning. Pain in usual severity returned within another 20-30 minutes.
The next day at 9:00 AM the subject injected 5 sites, each with 1 ml of the same solution. Within 10 minutes their whole body again was 95+% pain free. This almost complete pain free state was maintained for 4 hours when very mild pain in the knees was sensed. Pain in knees and in cervical spine returned to usual degree of severity within an ensuing period of about 20 minutes.

For `CCOC(=O)CN(C)C(N)=NC(C)=O` [Compound C15, N-acetyl ethyl creatinate], which “time to pain relief” value ([1]; 4% dressing) is on record?
Its value is “within an hour”.

What about the duration of relief ([1]; 4% dressing, until removed) of the same molecule?
Its duration of relief is “about 8 hours”.

What about the “extent of pain relief” value ([1]; adhesive dressing saturated with 4% in WP 82 on upper spine, person) of the same molecule?
Its value is “complete relief of pain”.

And the “extent of pain relief” value ([1]; subcutaneous 0.6 ml into each of 5 intervertebral sites, five occasions)?
Its value is “complete relief of pain”.

And the duration of relief ([1]; subcutaneous 0.6 ml, 5 sites)?
Its duration of relief is 1-4 weeks.

What about the “extent of pain relief” value ([2]; 3% in water: propylene glycol 8:2, topical to tongue) of the same molecule?
The value was “Complete pain relief”.

And the “clinical sign of lesions next day” value ([2]; 3% topical)?
Its value is “No clinical sign of the lesions could be detected next day”.

What about the return of pain ([2]; 3% topical) of the same molecule?
The return of pain was “remained pain free throughout the night and did not return”.

And the “time to pain relief” value ([2]; 3% topical)?
The value was “within less than a minute”.

What about the change of bunion [3] of the same molecule?
The change of bunion was “distinct resolution in mass”.

And the “whole body pain free” value ([4]; 3 ml of 1% solution (arginine 0.25%, pH 7), 1 ml into each of 3 abdominal sites, subcutaneous)?
Its value is ≥ 95%.

And the “duration of pain free state” value ([4]; 3 ml, 3 sites)?
Its value is 3.5 h.

What about the “time to pain free state” value ([4]; 3 ml, 3 sites) of the same molecule?
The value was “Ten”.

What about the “duration of pain free state” value ([4]; 5 sites, each 1 ml) of the same molecule?
Its value is 4 h.

And the “time to pain free state” value ([4]; 5 sites, each 1 ml)?
Its value is ≤ 10 min.

And the “whole body pain free” value ([4]; next day, 5 sites, each 1 ml of the same solution)?
The value was ≥ 95%.
